Results reported in ChEMBL document CHEMBL3882727, “Imidazopyridine Kinase Inhibitors” (2008).

Key:
[1] = target: T1, Insulin-like growth factor 1 receptor (Homo sapiens, UniProt P08069); experiment: Inhibition of human GST-rTEV-tagged IGF1R (957 to 1367 residues) expressed in baculovirus infected insect Sf9 cells assessed as decrease in biotin-aminohexyl-AEEEEYMMMMAKKKK-NH2 phosphorylation after 1 hr by fluorometer
Insulin receptor [2] = target: T2, Insulin receptor (Homo sapiens, UniProt P06213); experiment: Inhibition of human GST-rTEV-tagged insulin receptor (979 to 1382 residues) expressed in baculovirus infected insect Sf9 cells assessed as decrease in biotin-aminohexyl-AEEEEYMMMMAKKKK-NH2 phosphorylation after 1 hr by fluorometer
Insulin receptor [3] = target: T2, Insulin receptor; experiment: Inhibition of insulin-induced human insulin receptor autophosphorylation expressed in mouse NIH-3T3 cells preincubated for 2 hrs followed by insulin induction measured after 15 mins by DELFIA; type: cell-based, NIH3T3
[4] = target: T1, Insulin-like growth factor 1 receptor; experiment: Inhibition of IGF1-induced human IGF1R autophosphorylation expressed in mouse NIH-3T3 cells preincubated for 2 hrs followed by IGF-1 induction measured after 15 mins by DELFIA; type: cell-based, NIH3T3
[5] = Cytotoxicity against human NCI-H929 cells assessed as cell growth inhibition after 72 hrs by Cell Titre Glo assay; type: functional, cell-based; conditions: NCI-H929, 72 h
[6] = Cytotoxicity against human COLO205 cells assessed as cell growth inhibition after 72 hrs by Cell Titre Glo assay; type: functional, cell-based; conditions: COLO 205, 72 h
[7] = Toxicity in nude mouse xenografted with human COLO205 cells assessed as body weight loss at 30 mg/kg, bid for 21 days measured within 10 days of compound dosing relative to vehicle-treated control; type: organism-based, COLO 205; conditions: in vivo
[8] = Toxicity in nude mouse allografted with mouse LISN cells assessed as body weight loss at 30 mg/kg, qd for 21 days measured during compound dosing; type: organism-based; conditions: in vivo, 504 h
[9] = Antitumor activity against human COLO205 cells xenografted in nude mouse assessed as tumor growth inhibition at 10 mg/kg, qd for 21 days relative to vehicle-treated control; type: functional; conditions: COLO 205, 504 h, read-out: TGI
[10] = Toxicity in nude mouse xenografted with human COLO205 cells assessed as body weight loss at 100 mg/kg, qd for 21 days measured within 10 days of compound dosing relative to vehicle-treated control; type: organism-based, COLO 205; conditions: in vivo
[11] = Toxicity in nude mouse xenografted with human BT474 cells assessed as body weight loss at 15 mg/kg, bid for 3 weeks without dosing on weekends measured during compound dosing; type: organism-based, BT-474; conditions: in vivo, 504 h
[12] = Toxicity in nude mouse xenografted with human BT474 cells assessed as body weight loss at 15 to 60 mg/kg, qd for 3 weeks without dosing on weekends measured during compound dosing; type: organism-based, BT-474; conditions: in vivo, 504 h
[13] = Growth inhibition of human MCF7 cells assessed as combination index in presence of lapatinib after 3 days by methylene blue staining-based assay; type: functional
[14] = Growth inhibition of human MDA-MB-453 cells assessed as combination index in presence of lapatinib after 3 days by methylene blue staining-based assay; type: functional
[15] = Toxicity in nude mouse allografted with mouse LISN cells assessed as body weight loss at 15 mg/kg, bid for 21 days measured during compound dosing; type: organism-based; conditions: in vivo, 504 h
[16] = Growth inhibition of human MDA-MB-468 cells assessed as combination index in presence of lapatinib after 3 days by methylene blue staining-based assay; type: functional
[17] = Toxicity in nude mouse xenografted with human COLO205 cells assessed as body weight loss at 10 to 30 mg/kg, bid for 21 days measured during compound dosing; type: organism-based, COLO 205; conditions: in vivo, 504 h
[18] = Growth inhibition of human A549 cells assessed as combination index in presence of lapatinib after 3 days by methylene blue staining-based assay; type: functional
[19] = Toxicity in nude mouse allografted with mouse LISN cells assessed as body weight loss at 30 mg/kg, qd for every 3 days per week for 3 weeks measured during compound dosing; type: organism-based; conditions: in vivo

T2 sequence (P06213 28-758 limits assumed): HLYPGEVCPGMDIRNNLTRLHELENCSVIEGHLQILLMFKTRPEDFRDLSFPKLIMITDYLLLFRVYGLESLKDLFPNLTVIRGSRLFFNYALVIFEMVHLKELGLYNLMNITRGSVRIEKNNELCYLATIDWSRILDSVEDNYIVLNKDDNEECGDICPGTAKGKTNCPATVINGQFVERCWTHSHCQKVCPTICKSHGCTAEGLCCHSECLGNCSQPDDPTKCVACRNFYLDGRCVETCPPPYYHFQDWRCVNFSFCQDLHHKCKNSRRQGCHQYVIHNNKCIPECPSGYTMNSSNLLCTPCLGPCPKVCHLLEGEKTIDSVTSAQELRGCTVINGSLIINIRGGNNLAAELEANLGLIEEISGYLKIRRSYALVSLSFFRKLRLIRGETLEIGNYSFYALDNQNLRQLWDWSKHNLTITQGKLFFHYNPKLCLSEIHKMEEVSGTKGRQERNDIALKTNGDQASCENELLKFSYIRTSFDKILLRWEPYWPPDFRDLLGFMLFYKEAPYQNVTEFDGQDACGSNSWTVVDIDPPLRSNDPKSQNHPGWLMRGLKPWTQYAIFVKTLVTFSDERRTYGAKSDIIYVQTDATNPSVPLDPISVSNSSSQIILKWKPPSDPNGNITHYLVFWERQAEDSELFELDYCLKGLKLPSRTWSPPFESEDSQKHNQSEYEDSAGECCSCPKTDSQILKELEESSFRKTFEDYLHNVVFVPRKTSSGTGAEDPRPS
T2 sequence (P06213 763-1382 limits assumed): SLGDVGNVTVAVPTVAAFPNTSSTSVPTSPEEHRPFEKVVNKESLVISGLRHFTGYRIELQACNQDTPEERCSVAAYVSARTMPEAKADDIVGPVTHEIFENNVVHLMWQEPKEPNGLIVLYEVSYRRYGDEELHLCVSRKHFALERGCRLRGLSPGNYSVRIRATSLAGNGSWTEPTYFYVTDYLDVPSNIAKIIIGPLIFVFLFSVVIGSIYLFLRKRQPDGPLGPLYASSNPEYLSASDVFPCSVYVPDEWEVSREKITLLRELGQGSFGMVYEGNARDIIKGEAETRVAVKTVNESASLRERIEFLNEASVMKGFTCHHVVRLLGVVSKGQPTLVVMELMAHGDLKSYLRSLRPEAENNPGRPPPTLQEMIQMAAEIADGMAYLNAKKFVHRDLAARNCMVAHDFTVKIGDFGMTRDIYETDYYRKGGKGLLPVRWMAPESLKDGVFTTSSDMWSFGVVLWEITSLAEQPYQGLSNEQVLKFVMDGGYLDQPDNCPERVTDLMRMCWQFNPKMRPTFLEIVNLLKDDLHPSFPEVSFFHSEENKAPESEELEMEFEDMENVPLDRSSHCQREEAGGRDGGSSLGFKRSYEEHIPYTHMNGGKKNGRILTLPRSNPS

Row | Compound | IC50 [1] | IC50 (Insulin receptor [2]) | IC50 (Insulin receptor [3]) | other results
1 | COc1cc(N2CCC(CCS(C)(=O)=O)CC2)ccc1Nc1nccc(-c2c(-c3ccc(OC)c(C(=O)Nc4c(F)cccc4F)c3)nc3cc(F)ccn23)n1 | < 100 nM | < 100 nM | – | –
2 | COc1cc(N2CCC(N3CCCCC3)CC2)ccc1Nc1nccc(-c2c(-c3cccc(C(=O)Nc4c(F)cccc4F)c3)nc3cc(C(F)(F)F)ccn23)n1 | < 100 nM | < 100 nM | > 500 nM | IC50 [4]: 100 to 500 nM
3 | CCOc1cc(C2CCN(CCS(C)(=O)=O)CC2)ccc1Nc1nccc(-c2c(-c3ccc(OC)c(C(=O)Nc4c(F)cccc4F)c3)nc3ccccn23)n1 | < 100 nM | < 100 nM | < 100 nM | –
4 | COc1cc(N2CCC(N3CCN(S(C)(=O)=O)CC3)CC2)ccc1Nc1nccc(-c2c(-c3ccc(OC)c(C(=O)Nc4c(F)cccc4F)c3)nc3ccccn23)n1 | < 100 nM | < 100 nM | < 100 nM | –
5 | COc1cc(N2CCC(N3CCN(CCF)CC3)CC2)c(Cl)cc1Nc1nccc(-c2c(-c3cccc(C(=O)Nc4c(F)cccc4F)c3)nc3ccccn23)n1 | – | – | – | IC50 [5]: < 250 nM; IC50 [6]: 250 to 1000 nM
6 | CCOc1cc(N2CCN(CCS(C)(=O)=O)CC2)c(C)cc1Nc1nccc(-c2c(-c3ccc(OC(C)C)c(C(=O)Nc4c(F)cccc4F)c3)nc3ccccn23)n1 | 100 to 1000 nM | < 100 nM | < 100 nM | IC50 [4]: < 100 nM
7 | CCOc1cc(N2CCC(CCS(C)(=O)=O)CC2)c(C)cc1Nc1nccc(-c2c(-c3ccc(OC)c(C(=O)Nc4c(F)cccc4F)c3)nc3cc(F)ccn23)n1 | < 100 nM | < 100 nM | – | –
8 | COc1cc(N2CCC(N3CCN(CCF)CC3)CC2)ccc1Nc1nccc(-c2c(-c3cccc(C(=O)Nc4c(F)cccc4F)c3)nc3ccccn23)n1 | – | – | – | Activity [7]: > 20%; Activity [8]: Non-Toxic; inhibition in vivo at 10 mg/kg [9]: 42%; Activity [10]: > 20%; Activity [11]: Non-Toxic; Activity [12]: Non-Toxic; CI [13]: 1; CI [14]: 0.31; Activity [15]: Non-Toxic; CI [16]: 0.78 - 1.25; Activity [17]: Non-Toxic; CI [18]: <1; Activity [19]: Toxic
9 | CCOc1ccc(-c2nc3ccccn3c2-c2ccnc(Nc3ccc(C4CCN(CCS(C)(=O)=O)CC4)cc3OC)n2)cc1C(=O)Nc1c(F)cccc1F | < 100 nM | < 100 nM | < 100 nM | –
10 | COc1cc(N2CCC(N3CCN(CCS(C)(=O)=O)CC3)CC2)c(C)cc1Nc1nccc(-c2c(-c3cccc(C(=O)Nc4c(F)cccc4F)c3)nc3ccccn23)n1 | < 100 nM | < 100 nM | < 100 nM | –
